# Results: patent US20060199789A1, “medical composition” (Kyowa Hakko Kogyo Co., Ltd., priority 2003, published 2006)
# Columns and labels:
# eosinophils in BALF = test: Antigen-induced respiratory eosinophil infiltration in rat (BALF); format: in vivo, BN rats; conditions: Compound (I) 30 μg/rat, budesonide 10 μg/rat; for Inhibition ratio (number of eosinophils) / Number of eosinophils: OVA-sensitized BN rats, intrabronchial 30 min before antigen challenge, BAL 24 h after; for Number of eosinophils: mean±standard error
# Experimental: (§1) Inhibitory Effect of Combined Administration of Compound (I) and Steroid Agent on Antigen-Induced Respiratory Eosinophil and Neutrophil Infiltration in Rat
# (§2) The test was conducted according to a known method (Pulmonary Pharmacology, vol. 8, pp. 83-89 (1995)).
# (§3) In the test, 6-week-old male BN rats (Charles River Japan) were used. The rats were placed in aluminum cages each containing 5 to 6 rats in a breeding room at room temperature (19° C. to 25° C.) and a humidity of 30% to 70% under illumination for 12 hours a day (7 a.m. to 7 p.m.) and bred by free intake of commercially available feeds and water.
# (§4) A preparation (Compound (I)-lactose preparation) containing 5 mg of lactose (produced by DVM Corporation) to 1 mg of Compound (I) was prepared, and a suspension for administering Compound (I) was prepared by suspending the Compound (I)-lactose preparation in a 0.125 wt/vol % tyloxapol aqueous solution (ALEVAIRE: registered trade mark, produced by Azwell Inc.) so that the concentration of Compound (I) was 150 μg/mL. Also, a suspension for administering budesonide was prepared by suspending lactose and budesonide (manufactured by Sigma Corporation) in a 0.125 wt/vol % tyloxapol aqueous solution so that the concentrations of lactose and budesonide were 750 μg/mL and 50 μg/mL, respectively. Furthermore, a suspension for combined administration was prepared by suspending budesonide and the Compound (I)-lactose preparation prepared as described above in a 0.125 wt/vol % tyloxapol aqueous solution so that the concentrations of budesonide and Compound (I) were 50 μg/mL and 150 μg/mL, respectively. On the other hand, a solvent for administration was prepared by dissolving lactose in a 0.125 wt/vol % tyloxapol aqueous solution so that the concentration was 7.5 mg/mL.
# The rats were subcutaneously administered with 1 mL of a suspension of 1 mg of ovalbumin (OVA, manufactured by Sigma Co.) and 200 mg of aluminum hydroxide (manufactured by Wako Pure Chemicals Industries, Ltd.) suspended in 1 mL of physiological saline (manufactured by Otsuka Pharmaceutical Co., Ltd.). Then, 0.5 mL of a suspension of killed Bordetella pertussis cells (2×10^10 cells/1 mL physiological saline, manufactured by Kaken Pharmaceutical Co., Ltd.) was intraperitoneally administered to perform active sensitization. Fourteen days after the active sensitization, the rats were placed in a plastic chamber (30×50×30 cm), and an 1 wt/vol % OVA physiological saline solution was nebulized for 10 minutes using an ultrasonic nebulizer (manufactured by Omron Corporation) to perform antigen challenge. Thirty minutes before the antigen-challenge, 100 μL of each of the suspensions for administration prepared as described above was intrabronchially administered to each of the right and left bronchi, i.e., administered in a total of 200 μL (medicine-administered group). Similarly, thirty minutes before the antigen challenge, a group which the solvent for administration was intrabronchially administered (solvent-administered group) was prepared. Also, a group which the solvent for administration was intrabronchially administered and a physiological saline was nebulized instead of the 1 wt/vol % OVA physiological saline solution (physiological saline-administered group) was prepared. […]
# (§5) The total number of the leukocytes in BALF was measured with an automatic leukocyte counter (manufactured by Nihon Kohden Corporation). […]
# neutrophils in BALF = test: Antigen-induced respiratory neutrophil infiltration in rat (BALF); format: in vivo, BN rats; conditions: Compound (I) 30 μg/rat, budesonide 10 μg/rat; for Number of neutrophils: mean±standard error
# Experimental: as §1, §2, §3, §4
# The rats were subcutaneously administered with 1 mL of a suspension of 1 mg of ovalbumin (OVA, manufactured by Sigma Co.) and 200 mg of aluminum hydroxide (manufactured by Wako Pure Chemicals Industries, Ltd.) suspended in 1 mL of physiological saline (manufactured by Otsuka Pharmaceutical Co., Ltd.). Then, 0.5 mL of a suspension of killed Bordetella pertussis cells (2×10^10 cells/1 mL physiological saline, manufactured by Kaken Pharmaceutical Co., Ltd.) was intraperitoneally administered to perform active sensitization. Fourteen days after the active sensitization, the rats were placed in a plastic chamber (30×50×30 cm), and an 1 wt/vol % OVA physiological saline solution was nebulized for 10 minutes using an ultrasonic nebulizer (manufactured by Omron Corporation) to perform antigen challenge. […]
# as §5
# [1] = OVA-sensitized BN rats, intrabronchial 30 min before antigen challenge, BAL 24 h after
compound,measurement,setting,value
"CCCC1O[C@@H]2C[C@H]3[C@@H]4CCC5=CC(=O)C=C[C@]5(C)[C@H]4[C@@H](O)C[C@]3(C)[C@]2(C(=O)CO)O1 (stereo partly drawn) [Budesonide, budesonide, reference compound]",Inhibition ratio (number of eosinophils),eosinophils in BALF,54%
same,Number of eosinophils,eosinophils in BALF,0.26 ± 0.06 10^6/BALF
same,Number of neutrophils,neutrophils in BALF; [1],2.50 ± 0.31 10^6/BALF
"COc1ccc(C(=O)Cc2c(Cl)cncc2Cl)c2c1OC1(CCCC1)O2 [Compound (I), 7-[2-(3,5-dichloro-4-pyridyl)-1-oxoethyl]-4-methoxy-spiro[1,3-benzodioxol-2,1′-cyclopentane]]",Inhibitory effect against increases in the number of eosinophils in BALF (in words),eosinophils in BALF; sole or combined,inhibitory effect against increases in the number of eosinophils was exhibited
same,Inhibition ratio (number of eosinophils),eosinophils in BALF,54%
same,Number of eosinophils,eosinophils in BALF,0.26 ± 0.08 10^6/BALF
same,Effect on the number of neutrophils in BALF (in words),neutrophils in BALF; sole or combined,not significantly affected
same,Inhibition ratio (number of neutrophils),"neutrophils in BALF; OVA-sensitized BN rats, intrabronchial 30 min before antigen challenge, BAL 24 h after, N.E. = No effect",3%
same,Number of neutrophils,neutrophils in BALF; [1],2.28 ± 0.27 10^6/BALF
